From US20060204502A1 (priority 2004, published 2006) come the findings set out here.

Read-outs that look alike come from different tables or passages of the source.

Data set [1] concerns p38 MAPK. The experiment in a line: p38 MAPK phosphorylation immunoblot, A375 cells in hypoxia. The class given is cell-based, human. Conditions: 4 hours hypoxia, 10-1000 nM. The protocol:
(§1) Cells were harvested and washed with ice-cold PBS containing 1 mM sodium orthovanadate, AEBSF 104 mM, aprotinin 0.08 mM, leupeptin 2 mM, bestatin 4 mM, pepstatin A 1.5 mM, E-64 1.4 mM. Cells were then lysed in Triton lysis buffer. The protein concentration was determined using BCA protein assay kit (Pierce). Equivalent amounts of protein (35 ug) were subjected to electrophoresis on 7.5% sodium dodecyl sulfate-acrylamide gel. The gel was then electroblotted onto a nitrocellulose membrane. Membranes were blocked with 5% nonfat dry milk in PBS containing 0.1% Tween-20 and incubated with antibodies against HIF-1α (1:250 dilution) and HIF-1β (1:1000 dilution) in 5% nonfat dry milk in PBS/0.1% Tween-20 overnight at 4° C. Aliquots of total protein sample (50 ug) were analyzed using antibodies specific for phosphorylated (Thr183/Tyr185) or total p44/p42 MAPK (1:5000 dilution), phosphorylated (Thr180/Tyr182) or total p38 MAPK (1:1000 dilution) and for A3 receptor (1 µg/ml dilution). Filters were washed and incubated for 1 hour at room temperature with peroxidase-conjugated secondary antibodies against mouse and rabbit IgG (1:2000 dilution). […] The membranes were then stripped and reprobed with tubulin (1:250) to ensure equal protein loading. […]

Data set [2] relates to A375 cells. The experiment in a line: Colony formation assay of A375 cells. The class given is cell-based, human. The protocol: FIG. 2 illustrates colony formation assay of A375 cells. Cells were treated with different drugs and colonies were counted after 7 days. The values represent the mean±SEM of four independent experiments. […] Analysis was by ANOVA followed by Dunnett's test.
Control plates received the same volume of DMSO alone. After 7 days of growth at 37° C. in humidified atmosphere containing 5% CO2, the cells were fixed with absolute methanol for 5′ and stained with 1/10 Giemsa/phosphate-buffered saline (PBS) staining solution for 10 minutes. Staining solution was removed and colonies of greater than 30 cells were scored as survivors. For each treatment, six individual wells were scored.

In data set [3] the test system is HIF-1α mRNA. The experiment in a line: Real-Time RT-PCR of HIF-1α mRNA, A375 cells in hypoxia. The class given is cell-based, human. The settings on record: 4 hours hypoxia.
In data set [4] the test system is p44/p42 MAPK. Kind of data set: p44/p42 MAPK phosphorylation immunoblot, A375 cells in hypoxia. The class given is cell-based, human. Conditions: 4 hours hypoxia, nanomolar concentrations, maximum at 100 nM. The protocol:
as §1

Data set [5] deals with HIF-1α. The experiment in a line: HIF-1α protein immunoblot in hypoxic cells. The class given is cell-based, human. The settings on record: for HIF-1α protein expression: 100 nM, 4 hours hypoxia. How it is done: Cell culture and hypoxia treatment: Cells were maintained in DMEM (A375), EMEM (NCTC 2544) or RPMI 1640 (U87MG, U2OS) medium containing 10% fetal calf serum, penicillin (100 U/ml), streptomycin (100 ug/ml), and L-glutamine (2 mM) at 37° C. in 5% CO2/95% air. Cells were passaged two or three times weekly at a ratio between 1:5 and 1:10. Hypoxic exposure was in BBL™ GasPak pouch™ System (Becton Dickinson) that reduce oxygen concentration of less than 2% within 2 hours of incubation at 35° C.
Cells were harvested and washed with ice-cold PBS containing 1 mM sodium orthovanadate, AEBSF 104 mM, aprotinin 0.08 mM, leupeptin 2 mM, bestatin 4 mM, pepstatin A 1.5 mM, E-64 1.4 mM. Cells were then lysed in Triton lysis buffer. The protein concentration was determined using BCA protein assay kit (Pierce). […] The gel was then electroblotted onto a nitrocellulose membrane. Membranes were blocked with 5% nonfat dry milk in PBS containing 0.1% Tween-20 and incubated with antibodies against HIF-1α (1:250 dilution) and HIF-1β (1:1000 dilution) in 5% nonfat dry milk in PBS/0.1% Tween-20 overnight at 4° C. Aliquots of total protein sample (50 ug) were analyzed using antibodies specific for phosphorylated (Thr183/Tyr185) or total p44/p42 MAPK (1:5000 dilution), phosphorylated (Thr180/Tyr182) or total p38 MAPK (1:1000 dilution) and for A3 receptor (1 µg/ml dilution). Filters were washed and incubated for 1 hour at room temperature with peroxidase-conjugated secondary antibodies against mouse and rabbit IgG (1:2000 dilution). […] The membranes were then stripped and reprobed with tubulin (1:250) to ensure equal protein loading.
U0126 was used at 10 and 30 uM as inhibitor of MEK-1 and MEK-2 to prevent p44 and p42 MAPK activation. SB202190 was used at 1 and 10 uM as inhibitor of p38 MAPK.
Densitometry analysis: The intensity of each band in immunoblot assay was quantified using molecular analyst/PC densitometry software (Bio-Rad). […] The data were presented as the mean±S.E., and analyzed by the Student's test.

The target of data set [6] is P-gp (Homo sapiens, UniProt P08183). The class given is cell-based. The settings on record: HeL023 cells; 10 μM. How it is done: Rhodamine 123 Efflux Assay: 5×10^5 cells from each subline were loaded with 50 ng/ml of rhodamine 123 for 30 minutes at 37 C in medium. The cells were washed and resuspended in dye-staining agent free medium for 3 hours at 37 C. to allow rhodamine 123 efflux. The cells were then washed twice and the fluorescence of intracellular rhodamine 123 were analysed with Flow cytometer (residual fluorescence FRES). The fluorescence was compared with loaded cells maintained at 4 C. to prevent drug export (maximal fluorescence FMAX). […] Cells from each subline that were not being exposed to rhodamine 123 were used as negative controls.
Rhodamine 123 (Rh123) retention, a P-gp functional assay, was studied in all cell lines. This assay was performed by incubating cells with Rh123 and determining Rh123 accumulation by measuring its fluorescence. The maximum load of Rh123 (FMAX) was quantified at the end of treatment harvesting the cells and storing them at 4° C. to prevent any active Rh123 efflux. The P-gp drug efflux was allowed incubating Rh123-loaded cells in fresh new medium Rh123-free for 3 hours at 37° C. After this incubation, residual fluorescence (FRES) was measured and compared to FMAX.

The target of data set [7] is T1, human A3 adenosine receptor (Homo sapiens, UniProt P0DMS8).
T1 construct: endogenous in cells; host or cells: A375 human melanoma cells (ATCC)
T1 sequence (P0DMS8 1-318): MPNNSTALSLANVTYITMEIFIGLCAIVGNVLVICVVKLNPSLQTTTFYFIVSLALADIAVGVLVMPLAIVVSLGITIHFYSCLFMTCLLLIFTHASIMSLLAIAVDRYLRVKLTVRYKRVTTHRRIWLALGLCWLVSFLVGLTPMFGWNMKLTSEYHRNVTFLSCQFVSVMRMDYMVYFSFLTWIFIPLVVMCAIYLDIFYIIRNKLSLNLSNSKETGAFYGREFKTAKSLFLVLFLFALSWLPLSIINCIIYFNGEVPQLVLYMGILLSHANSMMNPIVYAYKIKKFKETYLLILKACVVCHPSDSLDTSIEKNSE
The experiment in a line: Binding affinity to A3 adenosine receptor in A375 cells.

Data set [8] deals with A375 cells. Kind of data set: Flow cytometry cell cycle (G2/M) and apoptosis (sub-G1) analysis, A375. Conditions: A375; for EC50: Homo sapiens, A-375. The class given is cell-based, human. How it is done:
Flow Cytometry Analysis: A375 and NCTC2544 adherent cells were trypsinized, mixed with floating cells, washed with PBS and permeabilised in 70% (vol/vol) ethanol/PBS solution at 4° C. for at least 24 hours. Jurkat, HeL023 and PBMC cells were centrifuged for 10 minutes at 1000×g. The cell pellet was then resuspended and permeabllised in 70% (vol/vol) ethanol/PBS solution at 4° C. for at least 24 hours. The cells were washed with PBS and the DNA was stained with a PBS solution, containing 20 μg/ml of propidium iodide and 100 μg/ml of RNAse, at room temperature for 30 minutes. Cells were analysed by FACScan (Becton-Dickinson) and the content of DNA was evaluated by the Cell-LISYS program (Becton-Dickinson). Cell distribution among cell cycle phases and apoptotic cells was evaluated as previously described (Secchiero et al., 2001). Briefly, the cell cycle distribution is shown as the percentage of cells containing 2n (G1 phase), 4n (G2 and M phases), 4n>x>2n. DNA amount (S phase) judged by propidium iodide staining. The apoptotic population is the percentage of cells with DNA content lower than 2n.
After 24 hours, cells were collected for flow cytometry analysis. PD 98059 was used at 20 uM as an inhibitor of MEK to prevent MEK-1 activation. […]
EC50 values were obtained by analysing G2/M accumulation dose response curve. ECMAX values were obtained by analysing sub-G1 accumulation dose response curve. Paclitaxel values have units of ng/ml.

Data set [9] concerns PBMC blasts. Kind of data set: Flow cytometry cell cycle analysis, PBMC blasts. The class given is cell-based. The settings on record: Homo sapiens, + MRE3008F20 10 μM, read-out: EC50 (G2/M accumulation).
Procedure: For multi-drug resistance testing, A375 and NCTC2544 cells are grown adherently and maintained in DMEM and EMEM medium, respectively, containing 10% fetal calf serum, penicillin (100 U/ml), streptomycin (100 μg/ml), L-glutamine (2 mM) at 37° C. in 5% CO2/95% air. HeL023 and Jurkat were grown in RPMI-1640 medium, containing 10% fetal calf serum, penicillin (100 U/ml), streptomycin (100 μg/ml), L-glutamine (2 mM) at 37° C. in 5% CO2/95% air. Cells are passaged two or three times weekly at a ratio between 1:5 and 1:10. Lymphocytes were isolated from buffy coats kindly provided by the Blood Bank of the University Hospital of Ferrara. Blood donated by healthy volunteers, after informed consent for research was obtained. Lymphocytes were isolated by density gradient centrifugation (Ficoll/Histopaque 1.077 g/ml). […]
Flow Cytometry Analysis: A375 and NCTC2544 adherent cells were trypsinized, mixed with floating cells, washed with PBS and permeabilised in 70% (vol/vol) ethanol/PBS solution at 4° C. for at least 24 hours. […] Cells were analysed by FACScan (Becton-Dickinson) and the content of DNA was evaluated by the Cell-LISYS program (Becton-Dickinson). Cell distribution among cell cycle phases and apoptotic cells was evaluated as previously described (Secchiero et al., 2001). […]
The test system of data set [10] is Human Melanoma A375. The experiment in a line: MTT growth inhibitory assay, A375. The settings on record: Homo sapiens, A-375, read-out: IC50 (μg/ml) of anti-neoplastic agent used jointly with A3 antagonist, A375 cells.
Procedure: An exemplary assay may comprise the following steps: Cells (1000-1500 cells/well) are seeded in a 96-well micro culture plate in a total volume of 100 μl/well. After overnight incubation in a humidified incubator at 37° C. with 5% CO2-95% air, chemotherapeutic drug solutions diluted with culture medium at various concentrations are added in the amount of 100 μl to each well. The plates are placed in a humidified incubator at 37° C. with 5% CO2-95% air for 7-10 days. The plates are then centrifuged briefly and 100 μl of the growth medium is removed. Cell cultures are incubated with 50 μl of MTT [3-(4,5-dimethylthiazol-2-yl)-2,5-diphenyl-tetrazolium bromide] reagent (1 mg/ml in Dulbecco's phosphate-buffered saline) for 4 hr at 37° C. The resultant purple formazan precipitate is solubilized with 200 μl of 0.04 N HCl in isopropanol. Absorbance is measured at a wavelength of 595 nm and at a reference wavelength of 655 nm using a Bio-Rad Model 3550 Microplate Reader. Preferably, all tests are run in duplicate for each dose level. […] The EZED50 computer program estimates the concentration of agent that inhibits cell growth by 50% as compared to the control cells. This is termed the IC50 and is determined by curve fitting test data using the following four logistic equation. [formula]
If testing concentrations are properly selected (i.e., no or little growth inhibition at low concentrations and complete inhibition at high concentrations), EZED50 program fits the data extremely well and estimates the IC50 value accurately. […] In these instances, the data could be re-analyzed by fixing the Amax value.
In this case, the IC50 could be estimated more accurately if both the Amax and Amin values are fixed. Although it may be feasible to estimate IC50 value by fixing Amax and/or Amax and Amin without repeating the experiment, the best way to determine the IC50 accurately is to decrease or increase the concentrations of the test agent and repeat the test.
Inhibitory assay testing is also used to determine enhanced therapeutic effects from combining A3 receptor antagonists with other tumor inhibiting agents. The inhibitory cell growth assays are run with and without selected concentrations of A3 receptor antagonists. An enhanced therapeutic effect is present when the IC50 of the tumor inhibiting agent is lower with the A3 receptor antagonist.
Quantitatively, the enhancement factor (EF) is calculated by dividing the IC50 value of the tumor inhibiting agent for a tumor cell line by the IC50 value of the agent with A3 receptor antagonist for the same cell line: [formula]
Interpretation of the EF is dependent upon the concentrations of A3 receptor antagonist tested. For example, when using very low concentrations of A3 receptor antagonist, any EF above 1.0 is synergistic if the A3 receptor antagonist concentration is below the threshold of cell growth inhibition.
The cells are cultured in a T25 Falcon Tissue Culture flask in a humidified incubator at 37° C. with 5% CO2-95% air. The cells are sub-cultured twice a week.
All other agents were dissolved in 100% DMSO at appropriate concentrations.

Sequence of P-gp (P08183 whole entry): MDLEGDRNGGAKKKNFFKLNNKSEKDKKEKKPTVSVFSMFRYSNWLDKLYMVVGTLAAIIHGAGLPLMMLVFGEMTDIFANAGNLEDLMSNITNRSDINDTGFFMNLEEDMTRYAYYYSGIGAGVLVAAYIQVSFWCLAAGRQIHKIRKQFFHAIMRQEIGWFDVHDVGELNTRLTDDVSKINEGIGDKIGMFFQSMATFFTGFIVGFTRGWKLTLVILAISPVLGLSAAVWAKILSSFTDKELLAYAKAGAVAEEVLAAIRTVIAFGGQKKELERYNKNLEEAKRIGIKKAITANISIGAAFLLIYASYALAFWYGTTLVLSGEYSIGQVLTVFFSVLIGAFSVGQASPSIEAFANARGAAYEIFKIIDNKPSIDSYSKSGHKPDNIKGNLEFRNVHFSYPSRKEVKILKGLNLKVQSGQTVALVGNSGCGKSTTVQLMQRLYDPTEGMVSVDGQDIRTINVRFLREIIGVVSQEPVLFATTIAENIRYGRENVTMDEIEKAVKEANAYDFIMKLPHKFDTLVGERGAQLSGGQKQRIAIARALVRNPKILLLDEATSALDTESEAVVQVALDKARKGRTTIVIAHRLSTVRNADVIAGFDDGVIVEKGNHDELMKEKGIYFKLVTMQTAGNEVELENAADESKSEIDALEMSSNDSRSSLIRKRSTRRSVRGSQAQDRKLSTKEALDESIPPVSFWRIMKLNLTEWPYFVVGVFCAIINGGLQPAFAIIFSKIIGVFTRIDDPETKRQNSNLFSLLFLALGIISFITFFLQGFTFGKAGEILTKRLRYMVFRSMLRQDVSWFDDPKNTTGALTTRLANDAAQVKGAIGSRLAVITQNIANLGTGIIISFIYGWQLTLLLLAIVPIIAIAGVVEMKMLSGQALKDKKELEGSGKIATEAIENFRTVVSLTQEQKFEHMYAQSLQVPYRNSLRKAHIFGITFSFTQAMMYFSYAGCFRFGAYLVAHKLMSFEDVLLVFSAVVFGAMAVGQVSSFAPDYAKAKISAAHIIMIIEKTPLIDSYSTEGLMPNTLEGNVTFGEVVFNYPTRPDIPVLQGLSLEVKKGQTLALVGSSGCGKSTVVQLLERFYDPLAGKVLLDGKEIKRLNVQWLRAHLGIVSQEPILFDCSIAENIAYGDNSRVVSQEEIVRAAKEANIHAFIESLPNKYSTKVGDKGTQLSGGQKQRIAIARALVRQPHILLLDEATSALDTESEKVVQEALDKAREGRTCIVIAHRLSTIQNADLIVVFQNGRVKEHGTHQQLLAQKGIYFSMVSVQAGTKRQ

On to `CNC(=O)[C@H]1O[C@@H](n2cnc3c(NCc4cccc(I)c4)nc(Cl)nc32)[C@H](O)[C@@H]1O` [Cl-IB-MECA], for which the “phosphorylation of p38 MAPK” value in data set [1] is given as “increased the phosphorylation of p38 MAPK in a dose-dependent manner”. The “colony formation, % of DMSO control” value in [2] (10 μM alone, colonies counted after 7 days) came out at 130%; in data set [2] (10 μM combined with paclitaxel (0.75 μg/ml), 7 days), 85%. Further, the “fold increase of HIF-1α mRNA accumulation vs untreated cells” value in [3] (10 nM) is recorded as 1.13±0.10 fold; in data set [3] (100 nM) it was 1.25±0.15 fold; in [3] (1 μM) it was 1.19±0.13 fold. Further, the “phosphorylation of p44 and p42” value in data set [4] is listed as “induced”. In addition, in data set [5] (A375, hypoxia 4 hours, read-out: EC50, HIF-1α protein accumulation), the EC50 was 10.6 ± 1.2 nM. For the same compound, the HIF-1α protein expression entry in [5] (U2OS osteosarcoma), in data set [5] (U87MG glioblastoma) and in data set [5] (human keratinocytes NCTC 2544) was “significant increase” each time.

Consider `CCCCn1cc2c(nc(NC(=O)Nc3ccccc3)n3nc(-c4ccco4)nc23)n1` [MRE 3062F20, 5-N-(4-phenyl-carbumoyl)amino-8-butyl-2(2furyl)-pyrazolo-[4,3e]-1,2,4-triazolo[1,5-c]pyrimidine], for which the “% of Rh123 Negative Cells (cells expressing P-gp activity)” value in data set [6] was found to be 1.0 ± 0.2%. The Ki in data set [7] came to 2.3 ± 0.2 nM. Besides, in data set [8] (antagonist dose inducing 50% of the enhancing activity to vindesine (1 nM), G2/M accumulation, read-out: SEC50), the EC50 was found to be 430 ± 40 nM.

As to `CC(=O)O[C@H]1C(=O)[C@@]2(C)[C@H]([C@H](OC(=O)c3ccccc3)[C@]3(O)C[C@H](OC(=O)[C@H](O)[C@@H](NC(=O)c4ccccc4)c4ccccc4)C(C)=C1C3(C)C)[C@]1(OC(C)=O)CO[C@@H]1C[C@@H]2O` [paclitaxel], in data set [2] (paclitaxel (0.75 μg/ml) alone, 7 days), the “colony formation, % of DMSO control” value turned out to be 64%. Further, the EC50 in [9] was 5.3 ± 0.6 ng/mL; in data set [8] (24 h, DMSO (no antagonist), read-out: EC50 (G2/M accumulation)) it was 16.6 ± 2 ng/mL. The IC50 in data set [10] (+ IL-11 (5 μg/ml)) came to 0.00046 µg/mL; in data set [10] (+ MRE3008F20 (10 μg/ml)), 0.00059 µg/mL. Also, in [8] (DMSO (no antagonist)), the “ECMAX (concentration exerting maximal apoptosis, sub-G1)” value was 6.00 ± 0.63 ng/mL.
